One data set deals with BxPC-3 cells. Put plainly: Cell cycle analysis (propidium iodide, FACS). Type of data set: cell-based. The note with it: 48 hours following treatment, 2 μM (1 μg) for 5 h, manual formulations. The procedure: 1.5×10^5 BxPC-3 cells were plated in 6-well plates (Nunc, UK) and left to adhere for 24 h. Cells were transferred to serum free media for 24-h, to ensure synchronisation of cells. Subsequently, cells were incubated with RALA/dFdCTP nanoparticles at a concentration of 2 μM (1 μg) for 5 h before removal of treatment media and the addition of fresh complete media. 48 h following treatment, cells were trypsinsed and fixed in ice-cold 70% ethanol for 1 hour at 4° C. Cells were washed twice in Phosphate Buffered Saline (PBS) for 5 min, before resuspension in 500 μL PBS and the addition of 50 μL of 100 μg/ml RNase (Invitrogen, UK). 10 minutes prior to running samples on fluorescence-activated cell sorting (FACS), 10 μl of a 100 μg/ml stock of propidium iodide (PI) was added. Controls include: untreated; dCTP (negative control); RALA/dCTP (RALA control); dFdCTP (drug control); and gemcitabine (comparator control).
A cell cycle analysis following treatment with RALA/dFdCTP was undertaken. If dFdCTP had been successfully delivered to cells, it would be incorporated during DNA polymerase, preventing DNA chain elongation. This would ultimately prevent cells from actively proliferating. This means that during cell cycling, the cycle will be arrested at the S-phase. Therefore, if there are a higher percentage of the cells in the (G0/G1+−S) phases than compared to the G2 phase, it is an indicator that dFdCTP has affected the cell cycle.

The conditions of data set [1]: Ioka T, et al. 2013; cited from earlier work.
A further data set deals with red blood cell (RBC). As to the kind of experiment: Haemolysis assay. Type of data set: cell-based. The note with it: ovine RBC, equivalent of 10-30 μg dFdCTP, 1 h at 37° C., isotonic trehalose solution. On the procedure: Defibrinated ovine whole blood (5 ml, TCS Biosciences Ltd, UK) was centrifuged at 500 g in citrate-phosphate buffer (15 ml, 0.1 M citric acid, C6HsO7, and 0.2 M disodium hydrogen phosphate, Na2HPO4) for 20 min to separate erythrocytes. The erythrocytes were subsequently washed three times with 20 mL of citrate-phosphate buffer by centrifugation and re-suspended in citrate-phosphate buffer solution at a concentration of 1×10^8 cells/mL. A Countess II automated cell counter (ThermoFisher, UK) was used to count erythrocytes by first diluting the erythrocyte suspension 1:10,000 in buffer. Subsequently, isotonic solutions (of osmolality in the range 290-310 mOsmol/kg) of RALA/dFdCTP (MR2.0) nanoparticles mixed with trehalose, or dFdCTP and trehalose was added to the erythrocyte suspension, with the equivalent of 10-30 μg dFdCTP added, and the solution incubated for 1 h at 37° C. Following incubation, the erythrocyte suspensions were centrifuged for 90 s at 400 g to form a cell pellet. Absorbance of the supernatant was measured via a Nanodrop 2000c UV-Vis spectrophotometer (Thermo Scientific, UK) at 541 nm. 1% Triton X-100 was used as a positive control representing 100% haemolysis; and citrate-phosphate buffer at pH 7.4 was used as a negative control.

Consider `Nc1ccn([C@@H]2O[C@H](CO)[C@@H](O)C2(F)F)c(=O)n1` [Gemcitabine, 2′,2′-difluoro-2′-deoxycytidine], for which the “Cells in (G0/G1 + S) Phase” value with BxPC-3 cells is 60.2%. Further, the “overall clinical response rate” value in data set [1] is on record as 6%.
Consider `Nc1ccn([C@H]2C[C@H](O)[C@@H](COP(=O)(O)OP(=O)(O)OP(=O)(O)O)O2)c(=O)n1` [dCTP, deoxycytidine triphosphate], for which the “Cells in (G0/G1 + S) Phase” value in the data set on BxPC-3 cells is reported as 49.9%.
Consider `Nc1ccn([C@@H]2O[C@H](COP(=O)(O)OP(=O)(O)OP(=O)(O)O)[C@@H](O)C2(F)F)c(=O)n1` [dFdCTP, 2′,2′-difluorodeoxycytidine 5′-triphosphate], for which the “Cells in (G0/G1 + S) Phase” value with BxPC-3 cells came to 66.4%. For the same compound, in the data set with red blood cell (RBC), the haemolysis is given as > 20%.

Source of the values: patent US20250082664A1, “NUCLEOSIDE FORMULATION” (PHION THERAPEUTICS LTD, priority 2021, published 2025).
